# In US20240059703A1 (AMGEN INC., priority 2021, published 2024):
# Legend:
# [1] = test system: MIA PaCa-2 (human pancreatic carcinoma) cells; assay: Cell Viability Assay (CellTiter-Glo), MIA PaCa-2; assay type: cell-based; settings: Homo sapiens, MIA PaCa-2, 72 h
# Experimental: Serially-diluted compound or DMSO was added to the cells, and plates were incubated at 37° C., 5% CO2 for 72 h. Cell viability was measured using a CellTiter-Glo® Luminescent Cell Viability Assay kit (Promega) according to the manufacturer's protocol. The luminescence signal of treated samples was normalized to DMSO control, and data were analyzed using a 4-parameter logistic model to calculate IC50 values.
# [2] = biological target: KRAS G12C (Homo sapiens (Human), UniProt P01116, C118A/G12C); assay: 2 h coupled exchange assay; assay type: biochemical; settings: Avg 2 h Coupled exchange IC50, 2 h compound pre-incubation, SOS-mediated nucleotide exchange
# Chain of KRAS G12C (P01116 other isoform, or with tags, fused parts or gaps G12C/C118A): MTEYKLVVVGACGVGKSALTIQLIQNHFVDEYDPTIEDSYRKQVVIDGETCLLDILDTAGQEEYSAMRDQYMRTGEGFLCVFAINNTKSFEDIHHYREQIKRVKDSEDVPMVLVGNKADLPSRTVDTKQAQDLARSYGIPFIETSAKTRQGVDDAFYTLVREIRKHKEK
# Experimental: The term “2 h coupled exchange assay” or “20 h coupled exchange assay” as used herein refers to the assay described in the Section entitled “BIOLOGICAL EVALUATION.”
# [3] = test system: A549 (human lung carcinoma) cells; assay: Cell Viability Assay (CellTiter-Glo), A549; assay type: cell-based; settings: Homo sapiens, A549, 72 h
# In short: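 Luminescent ATP read-out (CellTiter-Glo) after 72 h compound treatment of cells seeded overnight at 1.67E+04 cells/mL in RPMI 1640, 10% FBS; signal relative to DMSO, IC50 by 4-parameter logistic model.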
SMILES,IC50 [1] [nM],IC50 [2] [nM],IC50 [3] [nM]
"Cc1ccc2[nH]ncc2c1-c1c(C#N)c(N2CCC3(CN(C(=O)/C=C/CN(C)C)C3)C2)nc2c1CCC(C)(C)C2 [Example 13-2, 2-(2-((2E)-4-(dimethylamino)-2-butenoyl)-2,6-diazaspiro[3.4]octan-6-yl)-7,7-dimethyl-4-(5-methyl-1H-indazol-4-yl)-5,6,7,8-tetrahydro-3-quinolinecarbonitrile]",366,61,3700
"C=C(Cl)C(=O)N1CC2(CCN(c3nc4c(c(-c5c(C)ccc6[nH]ncc56)c3C#N)CCC(C)(C)C4)C2)C1 [Example 13-3, 2-(2-(2-chloro-2-propenoyl)-2,6-diazaspiro[3.4]octan-6-yl)-7,7-dimethyl-4-(5-methyl-1H-indazol-4-yl)-5,6,7,8-tetrahydro-3-quinolinecarbonitrile]",625,166,1250
"COC/C=C/C(=O)N1CC2(CCN(c3nc4c(c(-c5c(C)ccc6[nH]ncc56)c3C#N)CCC(C)(C)C4)C2)C1 [Example 13-4, 2-(2-((2E)-4-methoxy-2-butenoyl)-2,6-diazaspiro[3.4]octan-6-yl)-7,7-dimethyl-4-(5-methyl-1H-indazol-4-yl)-5,6,7,8-tetrahydro-3-quinolinecarbonitrile]",1620,357,> 5000
"C=CC(=O)N1CC2(CCN(c3nc4c(c(-c5ccccc5Cl)c3C#N)COC(C)(C)C4)C2)C1 [Example 13-5, 4-(2-chlorophenyl)-7,7-dimethyl-2-(2-(2-propenoyl)-2,6-diazaspiro[3.4]octan-6-yl)-7,8-dihydro-5H-pyrano[4,3-b]pyridine-3-carbonitrile]",> 5000,973,> 5000
"Cc1ccc2[nH]ncc2c1-c1c(C#N)c(N2CCC3(CN(C(=O)/C=C/C(F)F)C3)C2)nc2c1CCC(C)(C)C2 [Example 13-8, 2-(2-((2E)-4,4-difluoro-2-butenoyl)-2,6-diazaspiro[3.4]octan-6-yl)-7,7-dimethyl-4-(5-methyl-1H-indazol-4-yl)-5,6,7,8-tetrahydro-3-quinolinecarbonitrile]",218,44,3370
"C=CC(=O)N1CC2(CCN(c3nc4c(c(-c5c(C)ccc6[nH]ncc56)c3C#N)CC3(CC4)CC3)C2)C1 [Example 13-11, 4′-(5-methyl-1H-indazol-4-yl)-2′-(2-(2-propenoyl)-2,6-diazaspiro[3.4]octan-6-yl)-7′,8′-dihydro-5′H-spiro[cyclopropane-1,6′-quinoline]-3′-carbonitrile]",537,67,4240
"C=CC(=O)N1CC2(CCN(c3nc4c(c(-c5c(C)ccc6[nH]ncc56)c3C#N)CC(C)(C)C4)C2)C1 [Example 13-12, 6,6-dimethyl-4-(5-methyl-1H-indazol-4-yl)-2-(2-(2-propenoyl)-2,6-diazaspiro[3.4]octan-6-yl)-6,7-dihydro-5H-cyclopenta[b]pyridine-3-carbonitrile]",157,29,> 5000
"C=CC(=O)N1CC2(CCN(c3nc4c(c(-c5c(C)ccc6[nH]ncc56)c3C#N)CC3(CC3)C4)C2)C1 [Example 13-14, 4-(5-methyl-1H-indazol-4-yl)-2-(2-(2-propenoyl)-2,6-diazaspiro[3.4]octan-6-yl)-5,7-dihydrospiro[cyclopenta[b]pyridine-6,1′-cyclopropane]-3-carbonitrile]",517,34,> 5000
"C=CC(=O)N1CC2(CCN(c3nc4c(c(-c5c(C)ccc6[nH]ncc56)c3C#N)COCCC4(F)F)C2)C1 [Example 13-15, 9,9-difluoro-4-(5-methyl-1H-indazol-4-yl)-2-(2-(2-propenoyl)-2,6-diazaspiro[3.4]octan-6-yl)-5,7,8,9-tetrahydrooxepino[4,3-b]pyridine-3-carbonitrile]",1170,163,> 5000
"C=CC(=O)N1CC2(CCN(c3nc4c(c(-c5c(C)ccc6cnn(C)c56)c3C#N)CC(C)(C)C4)C2)C1 [Example 13-16, 4-(1,6-dimethyl-1H-indazol-7-yl)-6,6-dimethyl-2-(2-(2-propenoyl)-2,6-diazaspiro[3.4]octan-6-yl)-6,7-dihydro-5H-cyclopenta[b]pyridine-3-carbonitrile]",393,82,> 5000
"C=CC(=O)N1CC2(CCN(c3nc4c(c(-c5ccccc5Cl)c3C#N)CCC(c3ccnn3C)C4)C2)C1 [Example 13-19, (7R)-4-(2-chlorophenyl)-7-(1-methyl-1H-pyrazol-5-yl)-2-(2-(2-propenoyl)-2,6-diazaspiro[3.4]octan-6-yl)-5,6,7,8-tetrahydro-3-quinolinecarbonitrile|(7S)-4-(2-chlorophenyl)-7-(1-methyl-1H-pyrazol-5-yl)-2-(2-(2-propenoyl)-2,6-diazaspiro[3.4]octan-6-yl)-5,6,7,8-tetrahydro-3-quinolinecarbonitrile]",338,64,> 5000
"C=CC(=O)N1CC2(CCN(c3nc4c(c(-c5ccccc5Cl)c3C#N)CC[C@@H](c3ccnn3C)C4)C2)C1 [Example 13-20, (7R)-4-(2-chlorophenyl)-7-(1-methyl-1H-pyrazol-5-yl)-2-(2-(2-propenoyl)-2,6-diazaspiro[3.4]octan-6-yl)-5,6,7,8-tetrahydro-3-quinolinecarbonitrile]",224,12,3000
"C=CC(=O)N1CC2(CCN(c3nc4c(c(-c5ccccc5Cl)c3C#N)CC[C@H](c3ccnn3C)C4)C2)C1 [Example 13-21, (7S)-4-(2-chlorophenyl)-7-(1-methyl-1H-pyrazol-5-yl)-2-(2-(2-propenoyl)-2,6-diazaspiro[3.4]octan-6-yl)-5,6,7,8-tetrahydro-3-quinolinecarbonitrile]",615,62,> 5000
"C=CC(=O)N1CC2(CCN(c3nc4c(c(-c5ccccc5F)c3C#N)CCC(c3ccnn3C)C4)C2)C1 [Example 13-26, (7R)-4-(2-fluorophenyl)-7-(1-methyl-1H-pyrazol-5-yl)-2-(2-(2-propenoyl)-2,6-diazaspiro[3.4]octan-6-yl)-5,6,7,8-tetrahydro-3-quinolinecarbonitrile|(7S)-4-(2-fluorophenyl)-7-(1-methyl-1H-pyrazol-5-yl)-2-(2-(2-propenoyl)-2,6-diazaspiro[3.4]octan-6-yl)-5,6,7,8-tetrahydro-3-quinolinecarbonitrile]",280,35,> 5000
"C=CC(=O)N1CC2(CCN(c3nc4c(c(-c5cc(O)cc6ccccc56)c3C#N)COC(C)(C)C4)C2)C1 [Example 13-41, 4-(3-hydroxy-1-naphthalenyl)-7,7-dimethyl-2-(2-(2-propenoyl)-2,6-diazaspiro[3.4]octan-6-yl)-7,8-dihydro-5H-pyrano[4,3-b]pyridine-3-carbonitrile]",190,33,> 5000
"C=CC(=O)N1CC2(CCN(c3nc4c(c(-c5c(C)ccc6[nH]ncc56)c3C(=O)OC)CCC(C)(C)C4)C2)C1 [Example 13-44, methyl 7,7-dimethyl-4-(5-methyl-1H-indazol-4-yl)-2-(2-(2-propenoyl)-2,6-diazaspiro[3.4]octan-6-yl)-5,6,7,8-tetrahydro-3-quinolinecarboxylate]",1440,589,> 5000
"C=CC(=O)N1CC2(CCN(c3nc4c(c(-c5c(C)ccc6[nH]ncc56)c3C(F)F)COC(C)(C)C4)C2)C1 [Example 13-45, 1-(6-(3-(difluoromethyl)-7,7-dimethyl-4-(5-methyl-1H-indazol-4-yl)-7,8-dihydro-5H-pyrano[4,3-b]pyridin-2-yl)-2,6-diazaspiro[3.4]octan-2-yl)-2-propen-1-one]",421,148,> 5000
"C=CC(=O)N1CC2(CCN(c3nc4c(c(-c5c(C)ccc6cnn(C)c56)c3C#N)COC(C)(C)C4)C2)C1 [Example 13-49, 4-(1,6-dimethyl-1H-indazol-7-yl)-7,7-dimethyl-2-(2-(2-propenoyl)-2,6-diazaspiro[3.4]octan-6-yl)-7,8-dihydro-5H-pyrano[4,3-b]pyridine-3-carbonitrile]",442,123,> 5000
"C=CC(=O)N1CC2(CCN(c3nc4c(c(-c5c(C)ccc6[nH]ncc56)c3C#N)COC3(CCOCC3)C4)C2)C1 [Example 13-50, 4′-(5-methyl-1H-indazol-4-yl)-2′-(2-(2-propenoyl)-2,6-diazaspiro[3.4]octan-6-yl)-2,3,5,5′,6,8′-hexahydrospiro[pyran-4,7′-pyrano[4,3-b]pyridine]-3′-carbonitrile]",198,76,> 5000
"C=CC(=O)N1CC2(CCN(c3nc4c(c(-c5c(C)ccc6[nH]ncc56)c3C#N)COC3(CCOC3)C4)C2)C1 [Example 13-51, (3R)-4′-(5-methyl-1H-indazol-4-yl)-2′-(2-(2-propenoyl)-2,6-diazaspiro[3.4]octan-6-yl)-4,5,5′,8′-tetrahydrospiro[furan-3,7′-pyrano[4,3-b]pyridine]-3′-carbonitrile|(3S)-4′-(5-methyl-1H-indazol-4-yl)-2′-(2-(2-propenoyl)-2,6-diazaspiro[3.4]octan-6-yl)-4,5,5′,8′-tetrahydrospiro[furan-3,7′-pyrano[4,3-b]pyridine]-3′-carbonitrile]",287,95,> 5000
